Assay results published in patent US9499550B2 (BRISTOL-MYERS SQUIBB COMPANY, priority 2012, dated 2016).
Where two headings read alike, the source gives them in different places.

Experiments:
[1] = test system: HCV genotype 1a (H77 strain) replicon in HUH-7 cells; experiment: HCV replicon luciferase reporter assay, genotype 1a; assay type: cell-based; conditions: Hepatitis C virus, Huh-7, 72 h, HCV genotype 1a replicon luciferase, 3 days incubation
Summary of the method: (§1)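 Replicon inhibition for both genotypes was measured as Renilla luciferase signal (EnduRen, 7.5 μM final, 2 h) after 3-day, 37° C exposure of replicon-bearing HUH-7 cells in 4% FCS DMEM, 0.5% DMSO. The 1b construct carries S1179I; the 1a H77 construct carries P1496L and S2204I. Twenty-point, 3-fold dilutions were fitted four-parametrically for EC50, and CC50 was taken from multiplexed Cell Titer-Blue.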

[2] = test system: HCV genotype 1b (Con1) replicon in HUH-7 cells; experiment: HCV replicon luciferase reporter assay, genotype 1b; assay type: cell-based; conditions: Hepatitis C virus, Huh-7, 72 h, HCV genotype 1b replicon luciferase, 3 days incubation
Summary of the method: as §1

[3] = GETYPE1A, read-out: LE_1a (EC50)
[4] = GETYPE1A, read-out: LE_1a (EC50, range)
[5] = GETYPE1B, read-out: LE_1b (EC50)
[6] = GETYPE1B, read-out: LE_1b (EC50, range)

Row | Compound | EC50 [1, 3] [nM] | EC50 [1, 4] [nM] | EC50 [2, 5] [nM] | EC50 [2, 6] [nM] | EC50 ([1]; read-out: LE_1a (EC50, range)) [nM] | EC50 ([2]; read-out: LE_1b (EC50, range)) [nM]
1 | CCOc1ccc2nc(Cl)c(O[C@@H]3C[C@H]4C(=O)N[C@]5(C(=O)NS(=O)(=O)C6(C)CC6)C[C@H]5/C=C\CC[C@@H](C)C[C@@H](C)[C@H](NC(=O)OC(C)(C)C(F)(F)F)C(=O)N4C3)c(Cl)c2c1 [Compound 4312] | 20.9 | 5.01 to 35 | 12.2 | 5.01 to 35 | – | –
2 | CCOc1ccc2ncc(O[C@@H]3C[C@H]4C(=O)N[C@]5(C(=O)NS(=O)(=O)C6(C)CC6)C[C@H]5/C=C\CC[C@@H](C)C[C@@H](C)[C@H](NC(=O)OC(C)(C)C(F)(F)F)C(=O)N4C3)cc2c1 [Compound 4313] | – | 0.51 to 1 | – | 0.1 to 0.5 | – | –
3 | CCOc1ccc2ncc(O[C@@H]3C[C@H]4C(=O)N[C@]5(C(=O)NS(=O)(=O)C6(C)CC6)C[C@H]5/C=C\CC[C@@H](C)C[C@@H](CC)[C@H](NC(=O)OC(C)(C)C(F)(F)F)C(=O)N4C3)cc2c1 [Compound 4314] | – | 1.01 to 5 | – | 1.01 to 5 | – | –
4 | COc1ccc2nc(C(C)C)c(O[C@@H]3C[C@H]4C(=O)N[C@]5(C(=O)NS(=O)(=O)C6CC6)C[C@H]5/C=C\CC[C@H](C)C[C@@H](C)[C@H](NC(=O)OC(C)(C)C)C(=O)N4C3)nc2c1 [Compound 4315, tert-butyl ((2R,6S,7R,9S,13aS,14aR,16aS,Z)-14a-((cyclopropylsulfonyl)carbamoyl)-2-((3-isopropyl-7-methoxyquinoxalin-2-yl)oxy)-7,9-dimethyl-5,16-dioxo-1,2,3,5,6,7,8,9,10,11,13a,14,14a,15,16,16a-hexadecahydrocyclopropa[e]pyrrolo[1,2-a][1,4]diazacyclopentadecin-6-yl)carbamate] | – | – | – | – | 5.01 to 35 | 1.01 to 5
5 | COc1ccc2nc(C(C)C)c(O[C@@H]3C[C@H]4C(=O)N[C@]5(C(=O)NS(=O)(=O)C6CC6)C[C@H]5/C=C\CC[C@@H](C)C[C@@H](C)[C@H](NC(=O)OC(C)(C)C)C(=O)N4C3)nc2c1 [Compound 4316, tert-butyl ((2R,6S,7R,9R,13aS,14aR,16aS,Z)-14a-((cyclopropylsulfonyl)carbamoyl)-2-((3-isopropyl-7-methoxyquinoxalin-2-yl)oxy)-7,9-dimethyl-5,16-dioxo-1,2,3,5,6,7,8,9,10,11,13a,14,14a,15,16,16a-hexadecahydrocyclopropa[e]pyrrolo[1,2-a][1,4]diazacyclopentadecin-6-yl)carbamate] | – | – | – | – | 1.01 to 5 | 1.01 to 5
6 | COc1ccc2nc(C(C)C)c(O[C@@H]3C[C@H]4C(=O)N[C@]5(C(=O)NS(=O)(=O)C6CC6)C[C@H]5/C=C\CC[C@@H](C)C[C@@H](C)[C@H](NC(=O)OC(C)(C)C(F)(F)F)C(=O)N4C3)nc2c1 [Compound 4317] | – | 1.01 to 5 | – | 1.01 to 5 | – | –
7 | COc1ccc2nc(C(C)C)c(O[C@@H]3C[C@H]4C(=O)N[C@]5(C(=O)NS(=O)(=O)C6CC6)C[C@H]5/C=C\CC[C@H](C)C[C@@H](C)[C@H](NC(=O)OC(C)(C)C(F)(F)F)C(=O)N4C3)nc2c1 [Compound 4318] | – | 5.01 to 35 | – | 1.01 to 5 | – | –
8 | COc1ccc2c(O[C@@H]3C[C@H]4C(=O)N[C@]5(C(=O)NS(=O)(=O)C6(C)CC6)C[C@H]5/C=C\CC[C@@H](C)C[C@@H](C)[C@H](NC(=O)OC(C)(C)C)C(=O)N4C3)cnnc2c1 [Compound 4319, tert-butyl ((2R,6S,7R,9R,13aS,14aR,16aS,Z)-2-((7-methoxycinnolin-4-yl)oxy)-7,9-dimethyl-14a-(((1-methylcyclopropyl)sulfonyl)carbamoyl)-5,16-dioxo-1,2,3,5,6,7,8,9,10,11,13a,14,14a,15,16,16a-hexadecahydrocyclopropa[e]pyrrolo[1,2-a][1,4]diazacyclopentadecin-6-yl)carbamate] | – | – | – | – | 5.01 to 35 | 35 to 620
9 | CC[C@@H]1C[C@H](C)CC/C=C\[C@@H]2C[C@@]2(C(=O)NS(=O)(=O)C2(C)CC2)NC(=O)[C@@H]2C[C@@H](Oc3cnnc4cc(OC)ccc34)CN2C(=O)[C@H]1NC(=O)OC(C)(C)C(F)(F)F [Compound 4320] | 15 | 5.01 to 35 | 21.9 | 5.01 to 35 | – | –
10 | CC[C@@H]1C[C@H](C)CC/C=C\[C@@H]2C[C@@]2(C(=O)NS(=O)(=O)C2(C)CC2)NC(=O)[C@@H]2C[C@@H](Oc3cnnc4cc(OC)ccc34)CN2C(=O)[C@H]1NC(=O)OC(C)(C)C [Compound 4321, tert-butyl ((2R,6S,7R,9R,13aS,14aR,16aS,Z)-7-ethyl-2-((7-methoxycinnolin-4-yl)oxy)-9-methyl-14a-(((1-methylcyclopropyl)sulfonyl)carbamoyl)-5,16-dioxo-1,2,3,5,6,7,8,9,10,11,13a,14,14a,15,16,16a-hexadecahydrocyclopropa[e]pyrrolo[1,2-a][1,4]diazacyclopentadecin-6-yl)carbamate] | – | – | – | – | 5.01 to 35 | 5.01 to 35
11 | COc1ccc2c(O[C@@H]3C[C@H]4C(=O)N[C@]5(C(=O)NS(=O)(=O)C6(C)CC6)C[C@H]5/C=C\CC[C@@H](C)C[C@@H](C)[C@H](NC(=O)OC(C)(C)C(F)(F)F)C(=O)N4C3)cnnc2c1 [Compound 4322] | – | 5.01 to 35 | – | 5.01 to 35 | – | –
12 | CC[C@@H]1C[C@H](C)CC/C=C\[C@@H]2C[C@@]2(C(=O)NS(=O)(=O)C2(C)CC2)NC(=O)[C@@H]2C[C@@H](Oc3ncc(OC)c4ccc(F)cc34)CN2C(=O)[C@H]1NC(=O)C1(C(F)(F)F)CC1 [Compound 4323, (2R,6S,7R,9R,13aS,14aR,16aS,Z)-7-ethyl-2-((7-fluoro-4-methoxyisoquinolin-1-yl)oxy)-9-methyl-N-((1-methylcyclopropyl)sulfonyl)-5,16-dioxo-6-(1-(trifluoromethyl)cyclopropanecarboxamido)-1,2,3,5,6,7,8,9,10,11,13a,14,14a,15,16,16a-hexadecahydrocyclopropa[e]pyrrolo[1,2-a][1,4]diazacyclopentadecine-14a-carboxamide] | – | – | – | – | 1.01 to 5 | 0.51 to 1
13 | CC[C@@H]1C[C@H](C)CC/C=C\[C@@H]2C[C@@]2(C(=O)NS(=O)(=O)C2(C)CC2)NC(=O)[C@@H]2C[C@@H](Oc3ncc(OC)c4ccc(F)cc34)CN2C(=O)[C@H]1NC(=O)C(C)(C)C(F)(F)F [Compound 4324, (2R,6S,7R,9R,13aS,14aR,16aS,Z)-7-ethyl-2-((7-fluoro-4-methoxyisoquinolin-1-yl)oxy)-9-methyl-N-((1-methylcyclopropyl)sulfonyl)-5,16-dioxo-6-(3,3,3-trifluoro-2,2-dimethylpropanamido)-1,2,3,5,6,7,8,9,10,11,13a,14,14a,15,16,16a-hexadecahydrocyclopropa[e]pyrrolo[1,2-a][1,4]diazacyclopentadecine-14a-carboxamide] | – | – | – | – | 1.01 to 5 | 0.51 to 1
14 | CC[C@@H]1C[C@H](C)CC/C=C\[C@@H]2C[C@@]2(C(=O)NS(=O)(=O)C2(CO)CC2)NC(=O)[C@@H]2C[C@@H](Oc3nccc4cc(OC)c(F)cc34)CN2C(=O)[C@H]1NC(=O)OC(C)(C)C(F)(F)F [Compound 4325] | – | 35 to 620 | – | 5.01 to 35 | – | –
15 | CC[C@@H]1C[C@@H](C)CC/C=C\[C@@H]2C[C@@]2(C(=O)NS(=O)(=O)C2(CO)CC2)NC(=O)[C@@H]2C[C@@H](Oc3nccc4cc(OC)c(F)cc34)CN2C(=O)[C@H]1NC(=O)OC(C)(C)C(F)(F)F [Compound 4326] | – | 35 to 620 | – | 35 to 620 | – | –
16 | CC[C@@H]1C[C@H](C)CC/C=C\[C@@H]2C[C@@]2(C(=O)NS(=O)(=O)C2CC2)NC(=O)[C@@H]2C[C@@H](Oc3cnnc4cc(OC)ccc34)CN2C(=O)[C@H]1NC(=O)OC(C)(C)C(F)(F)F [Compound 4327] | – | 5.01 to 35 | – | 5.01 to 35 | – | –
17 | CC[C@@H]1C[C@H](C)CC/C=C\[C@@H]2C[C@@]2(C(=O)NS(=O)(=O)C2(C)CC2)NC(=O)[C@@H]2C[C@@H](Oc3ncc(OC)c4ccc(F)cc34)CN2C(=O)[C@H]1NC(=O)N1CC(C)OC(C)C1 (stereo partly drawn) [Compound 4328, N-((2R,6S,7R,9R,13aS,14aR,16aS,Z)-7-ethyl-2-((7-fluoro-4-methoxyisoquinolin-1-yl)oxy)-9-methyl-14a-(((1-methylcyclopropyl)sulfonyl)carbamoyl)-5,16-dioxo-1,2,3,5,6,7,8,9,10,11,13a,14,14a,15,16,16a-hexadecahydrocyclopropa[e]pyrrolo[1,2-a][1,4]diazacyclopentadecin-6-yl)-2,6-dimethylmorpholine-4-carboxamide] | – | – | – | – | 1.01 to 5 | 1.01 to 5
18 | CC[C@@H]1C[C@H](C)CC/C=C\[C@@H]2C[C@@]2(C(=O)NS(=O)(=O)C2(C)CC2)NC(=O)[C@@H]2C[C@@H](Oc3nccc4cc(OC)c(F)cc34)CN2C(=O)[C@H]1NC(=O)C1(C(F)(F)F)CC1 [Compound 4331, (2R,6S,7R,9R,13aS,14aR,16aS,Z)-7-ethyl-2-((7-fluoro-6-methoxyisoquinolin-1-yl)oxy)-9-methyl-N-((1-methylcyclopropyl)sulfonyl)-5,16-dioxo-6-(1-(trifluoromethyl)cyclopropanecarboxamido)-1,2,3,5,6,7,8,9,10,11,13a,14,14a,15,16,16a-hexadecahydrocyclopropa[e]pyrrolo[1,2-a][1,4]diazacyclopentadecine-14a-carboxamide] | – | – | – | – | 1.01 to 5 | 0.51 to 1
